Source: US20250011303A1, “SMALL MOLECULE MODULATORS OF IL-17A, METHODS OF MAKING AND METHODS OF USING THEREOF” (ASCLETIS BIOSCIENCE CO., LTD, priority 2023, published 2025)
Where two headings read alike, the source gives them in different places.

System: HEK-Blue IL-17 cells with rhIL-17A/A
Assay: HEK-Blue IL-17 cell assay (SEAP reporter, rhIL-17A/A stimulation)
Assay type: cell-based, human
Conditions: 20 hours incubation, absorbance at 405 nm, read-out: IC50 in HEK-Bule cell Assay
Method: • 1. The test Compounds were 3-fold serial diluted from 10 mM for 10 doses in DMSO. • 2. Prepare Reference Compounds (IL-17A-Inhibitor-1) were 3-fold serial diluted from 1 mM for 10 doses in DMSO. • 3. Prepare 1000× Positive control (1 mM IL-17A-Inhibitor-1) and 1000× vehicle control (100% DMSO).
• a) Cells were cultured as the HEK-Blue™ IL-17 technical data sheet recommended. HEK-Blue IL-17 cells were assayed in the exponential growth phase. • b) Aspirate growth medium and rinse cells twice with PBS to remove phenol red. • c) Resuspend cells in test medium to a proper concentration. • d) Only cells with viability greater than 90% were used for assays. • e) Transfer 25 nl of compound dilutions into 384-well assay plates using Echo655; • f) Seed 25 ul of HEK-Blue IL-17 cells at 8,000 cells/well into 384-well plate with rhIL-17A/A. • g) Cells were incubated for 20 hours at 37° C. under 5% CO2 atmosphere. • h) Transfer 2 ul of cells supernatant into per well of 384-well assay plates. • i) Add 20 ul of PNPP substrate. • j) Measure the Absorbance at 405 nm on Envision 2105 plate reader.
RLU signal (LUMcmpd) is calculated for each well.
% Inhibition is calculated as follow: […]
Signalave_pc: The average signal for the positive controls across the plate.
Signalave_vc: The average signal for negative controls across the plate.
Calculate IC50 and Plot effect-dose curve of cmpds:
Calculate IC50 by fitting % Inhibition values and log of compound concentrations to nonlinear regression (dose response−variable slope) with Graphpad 8.0.

Structure (SMILES) | IC50 (Homo sapiens, HEK-Blue, 20 h) | IC50
CC(C)n1nccc1C(=O)N[C@H](C(=O)Nc1ccc2c(c1)OCC[C@H]2NC(=O)CCC(F)(F)F)C1CCCCCC1 [Compound 1] | 209 nM | 
CC(C)n1nccc1C(=O)N[C@H](C(=O)Nc1ccc2c(c1)OCC[C@H]2NS(=O)(=O)CCC(F)(F)F)C1CCCCCC1 [Compound 5] | 333 nM | 
CC(C)n1nccc1C(=O)N[C@H](C(=O)Nc1ccc2c(c1)OCC(C)(C)[C@H]2NC(=O)CCC(F)(F)F)C1CCCCCC1 [Compound 12] | 317 nM | 
CC(C)n1nccc1C(=O)N[C@H](C(=O)Nc1ccc2c(c1)OC(C)(C)C[C@H]2NC(=O)CCC(F)(F)F)C1CCCCCC1 [Compound 13] | 239 nM | 
CC(C)n1nccc1C(=O)N[C@H](C(=O)Nc1ccc2c(c1)OCC[C@H]2C(=O)N1CC(F)(F)C(F)(F)C1)C1CCCCCC1 [Compound 36] | 154 nM | 
CCC1(CC)CC(C(=O)N2CC(F)(F)C2)c2ccc(NC(=O)[C@@H](NC(=O)c3ccnn3C(C)C)C3CCCCCC3)cc2O1 (stereo partly shown) [Compound 108] | 102 nM | 
CC(C)n1nccc1C(=O)N[C@H](C(=O)Nc1ccc2c(c1)O[C@@H](C1CC(F)(F)C1)C[C@H]2C(=O)N1CC(F)(F)C1)C1CCCCCC1 [Compound 135] | 18.9 nM | 
CC(C)n1nccc1C(=O)N[C@H](C(=O)Nc1ccc2c(c1)O[C@H](C1CC(F)(F)C1)C[C@H]2C(=O)N1CC(F)(F)C1)C1CCCCCC1 [Compound 136] | 49 nM | 
CC(C)n1nccc1C(=O)N[C@H](C(=O)Nc1ccc2c(c1)OC1(CCOCC1)C[C@H]2C(=O)N1CC(F)(F)C1)C1CCCCCC1 [Compound 152] | 7.49 nM | 
CC(C)n1nccc1C(=O)N[C@H](C(=O)Nc1ccc2c(c1)O[C@@H](C1CC(F)(F)C1)C[C@H]2C(=O)N1CC(F)(F)C1)C(C1CC1)C1CC1 [Compound 160] | 42.1 nM | 
CC(C)n1nccc1C(=O)N[C@H](C(=O)Nc1ccc2c(c1)OC1(CCOCC1)C[C@H]2C(=O)N1CC(F)(F)C1)C(C1CC1)C1CC1 [Compound 162] | 35.7 nM | 
CC(C)C1CC(C(=O)N2CC(C(F)(F)F)C2)c2ccc(NC(=O)[C@@H](NC(=O)c3ccnn3C(C)C)C3CCCCCC3)cc2O1 (stereo partly shown) [Compound 164] | 72.6 nM | 
CC(C)C1CC(C(=O)N2CC3(C2)CC(F)(F)C3)c2ccc(NC(=O)[C@@H](NC(=O)c3ccnn3C(C)C)C3CCCCCC3)cc2O1 (stereo partly shown) [Compound 165] | 127 nM | 
CC(C)n1nccc1C(=O)N[C@H](C(=O)Nc1ccc2c(c1)OC(C)(C)CN2C(=O)N1CC(F)(F)C1)C1CCCCCC1 [Compound 166] | 54.5 nM | 
CC(C)C1CN(C(=O)N2CC(F)(F)C2)c2ccc(NC(=O)[C@@H](NC(=O)c3ccnn3C(C)C)C3CCCCCC3)cc2O1 (stereo partly shown) [Compound 167] | 30.4 nM | 
CC(C)n1nccc1C(=O)N[C@H](C(=O)Nc1ccc2c(c1)OC1(CCOCC1)CN2C(=O)N1CC(F)(F)C1)C1CCCCCC1 [Compound 169] | 18.2 nM | 
O=C(N[C@H](C(=O)Nc1ccc2c(c1)OC(C1CC(F)(F)C1)CC2C(=O)N1CC(C(F)(F)F)C1)C1CCCCCC1)OCC1CC1(F)F (stereo partly drawn) [Compound 189, (2,2-difluorocyclopropyl)methyl N—[(S)-cycloheptyl[(2-(3,3-difluorocyclobutyl)-4-(3-(trifluoromethyl)azetidine-1-carbonyl)-3,4-dihydro-2H-1-benzopyran-7-yl)carbamoyl]methyl]carbamate] | 226 nM | 
O=C(N[C@H](C(=O)Nc1ccc2c(c1)OC1(CCOCC1)CC2C(=O)N1CC(F)(F)C1)C1CCCCCC1)OC[C@@H]1CC1(F)F (stereo partly shown) [Compound 190] | 367 nM | 
O=C(N[C@H](C(=O)Nc1ccc2c(c1)OC(C1CC(F)(F)C1)CC2C(=O)N1CC(F)(F)C1)C1CCCCCC1)OCc1cc(C(F)F)on1 (stereo partly shown) [Compound 191] | 171 nM | 
O=C(N[C@H](C(=O)Nc1cc2c(cc1F)C(C(=O)N1CC(F)(F)C1)CC(C1CC(F)(F)C1)O2)C1CCCCCC1)OC[C@@H]1CC1(F)F (stereo partly shown) [Compound 192] | 267 nM | 
CC(C)n1nccc1C(=O)N[C@H](C(=O)Nc1cc2c(cc1F)C(C(=O)N1CC(F)(F)C1)CC(C1CC(F)(F)C1)O2)C1CCCCCC1 (stereo partly shown) [Compound 193] | 39.7 nM | 
CC(C)C1CC(C(=O)N2CC(F)(F)C2)c2ccc(NC(=O)[C@@H](NC(=O)OC3CC(F)(F)C3)C3CCCCCC3)cc2O1 (stereo partly shown) [Compound 194] | 564 nM | 
CC(C)n1nccc1C(=O)N[C@H](C(=O)Nc1ccc2c(c1F)OC(C1CC(F)(F)C1)CC2C(=O)N1CC(F)(F)C1)C1CCCCCC1 (stereo partly shown) [Compound 195] | 131 nM | 
CC(C)n1nccc1C(=O)N[C@H](C(=O)Nc1ccc2c(c1)OCCC2C(=O)N1CC(F)(F)C1)C1CCCCCC1 (stereo partly shown) [Compound 197] | 287 nM | 
CC(C)n1nccc1C(=O)N[C@H](C(=O)Nc1ccc2c(c1)OCC[C@H]2C(=O)N1CC(F)(F)C1)C1CCCCCC1 [Compound 198] | 216 nM | 

Structure (SMILES) | IC50 (Homo sapiens, HEK-Blue, 20 h) | IC50
CC(C)n1nccc1C(=O)N[C@H](C(=O)Nc1ccc2c(c1)OC(C)(C)CC2C(=O)N1CC(F)(F)C1)C1CCCCCC1 (stereo partly shown) [Compound 200] | 200 nM | 
CC(C)n1nccc1C(=O)N[C@H](C(=O)Nc1ccc2c(c1)OCCC2CC(=O)N1CC(F)(F)C(F)(F)C1)C1CCCCCC1 (stereo partly shown) [Compound 201] | 443 nM | 
CC(C)n1nccc1C(=O)N[C@H](C(=O)Nc1ccc2c(c1)CCCC2C(=O)N1CC(F)(F)C(F)(F)C1)C1CCCCCC1 (stereo partly shown) [Compound 203] | 141 nM | 
CC(C)n1nccc1C(=O)N[C@H](C(=O)Nc1ccc2c(c1)OCCC2C(=O)N1CCC(F)(F)CC1)C1CCCCCC1 (stereo partly shown) [Compound 206] | 369 nM | 
CC(C)n1nccc1C(=O)N[C@H](C(=O)Nc1ccc2c(c1)SCCC2C(=O)N1CC(F)(F)C(F)(F)C1)C1CCCCCC1 (stereo partly shown) [Compound 207] | 92.9 nM | 
CC(C)n1nccc1C(=O)N[C@H](C(=O)Nc1ccc2c(c1)S(=O)(=O)CCC2C(=O)N1CC(F)(F)C(F)(F)C1)C1CCCCCC1 (stereo partly shown) [Compound 208] | 290 nM | 
CC(C)n1nccc1C(=O)N[C@H](C(=O)Nc1ccc2c(c1)OC(C1CCC1)CC2C(=O)N1CC(F)(F)C(F)(F)C1)C1CCCCCC1 (stereo partly shown) [Compound 210] | 251 nM | 
CC(C)n1nccc1C(=O)N[C@H](C(=O)Nc1ccc2c(c1)OC(C1CCCC1)CC2C(=O)N1CC(F)(F)C(F)(F)C1)C1CCCCCC1 (stereo partly shown) [Compound 211] | 259 nM | 
CC(C)n1nccc1C(=O)N[C@H](C(=O)Nc1ccc2c(c1)OC(C1CCCCC1)CC2C(=O)N1CC(F)(F)C1)C1CCCCCC1 (stereo partly shown) [Compound 212] | 213 nM | 
CC(C)n1nccc1C(=O)N[C@H](C(=O)Nc1ccc2c(c1)OC(C(C)(C)C)CC2C(=O)N1CC(F)(F)C(F)(F)C1)C1CCCCCC1 (stereo partly shown) [Compound 213] | 112 nM | 
Cc1nonc1C(=O)N[C@H](C(=O)Nc1ccc2c(c1)OC(C(C)C)CC2C(=O)N1CC(F)(F)C1)C1CCCCCC1 (stereo partly shown) [Compound 214] | 335 nM | 
CC(C)[C@H]1C[C@@H](C(=O)N2CC(F)(F)C(F)(F)C2)c2ccc(NC(=O)[C@@H](NC(=O)c3ccnn3C(C)C)C3CCCCCC3)cc2O1 [Compound 215] | 40.7 nM | 
CC(C)[C@@H]1C[C@@H](C(=O)N2CC(F)(F)C(F)(F)C2)c2ccc(NC(=O)[C@@H](NC(=O)c3ccnn3C(C)C)C3CCCCCC3)cc2O1 [Compound 217] | 199 nM | 
CC(C)[C@H]1C[C@H](C(=O)N2CC(F)(F)C(F)(F)C2)c2ccc(NC(=O)[C@@H](NC(=O)c3ccnn3C(C)C)C3CCCCCC3)cc2O1 [Compound 218] | 222 nM | 
CC(C)n1nccc1C(=O)N[C@H](C(=O)Nc1ccc2c(c1)CCCC2C(=O)N1CC(F)(F)C1)C1CCCCCC1 (stereo partly shown) [Compound 219] | 276 nM | 
CC(C)CC1CC(C(=O)N2CC(F)(F)C2)c2ccc(NC(=O)[C@@H](NC(=O)c3ccnn3C(C)C)C3CCCCCC3)cc2O1 (stereo partly shown) [Compound 220] | 181 nM | 
CC(C)n1nccc1C(=O)N[C@H](C(=O)Nc1ccc2c(c1)OC1(CCCCC1)CC2C(=O)N1CC(F)(F)C1)C1CCCCCC1 (stereo partly shown) [Compound 221] | 116 nM | 
CC(C)n1nccc1C(=O)N[C@H](C(=O)Nc1ccc2c(c1)OC1(CCC1)CC2C(=O)N1CC(F)(F)C1)C1CCCCCC1 (stereo partly shown) [Compound 222] | 255 nM | 
CC(C)n1nccc1C(=O)N[C@H](C(=O)Nc1ccc2c(c1)OC1(CCCC1)CC2C(=O)N1CC(F)(F)C1)C1CCCCCC1 (stereo partly shown) [Compound 223] | 130 nM | 
CC(C)n1nccc1C(=O)N[C@H](C(=O)Nc1ccc2c(c1)OC1(CCC(C)(C)CC1)CC2C(=O)N1CC(F)(F)C1)C1CCCCCC1 (stereo partly shown) [Compound 224] | 202 nM | 
CC(C)n1nccc1C(=O)N[C@H](C(=O)Nc1ccc2c(c1)O[C@H](C1CC(F)(F)C1)C[C@H]2C(=O)N1CC(F)(F)C1)C1CCCCCC1 [Compound 226] |  | 48.9 nM
CC(C)n1nccc1C(=O)N[C@H](C(=O)Nc1ccc2c(c1)O[C@@H](C1CC(F)(F)C1)C[C@H]2C(=O)N1CC(F)(F)C1)C1CCCCCC1 [Compound 228] |  | 27.5 nM
CC(C)C1CC(C(=O)N2CC(F)(F)C2)c2cc(F)c(NC(=O)[C@@H](NC(=O)c3ccnn3C(C)C)C3CCCCCC3)cc2O1 (stereo partly shown) [Compound 230] | 242 nM | 
CC(C)n1nccc1C(=O)N[C@H](C(=O)Nc1ccc2c(c1)OC(C1CC(F)(F)C1)CC2C(=O)N1CC(C(F)(F)F)C1)C1CCCCCC1 (stereo partly shown) [Compound 231] | 116 nM | 
